Measured values from the NIST ThermoML archive (doi:10.1016/j.jct.2006.05.008).
Numbers after ± are expanded uncertainties.

Experiment: molar heat capacity at constant pressure
Settings: 101.33 kPa, Small (less than 1 g) adiabatic calorimetry

Compound: CCCCn1cc[n+](C)c1.[Br-] [1-butyl-3-methylimidazolium bromide]
- molar heat capacity at constant pressure (5 K, Crystal): 0.594 ± 0.036 J/K/mol
- molar heat capacity at constant pressure (5.112 K, Crystal): 0.6398 ± 0.033 J/K/mol
- molar heat capacity at constant pressure (5.416 K, Glass): 1.391 ± 0.048 J/K/mol
- molar heat capacity at constant pressure (5.455 K, Crystal): 0.7976 ± 0.035 J/K/mol
- molar heat capacity at constant pressure (5.698 K, Glass): 1.608 ± 0.044 J/K/mol
- molar heat capacity at constant pressure (5.764 K, Crystal): 0.9598 ± 0.039 J/K/mol
- molar heat capacity at constant pressure (6.014 K, Glass): 1.871 ± 0.055 J/K/mol
- molar heat capacity at constant pressure (6.078 K, Crystal): 1.144 ± 0.042 J/K/mol
- molar heat capacity at constant pressure (6.368 K, Glass): 2.187 ± 0.061 J/K/mol
- molar heat capacity at constant pressure (6.428 K, Crystal): 1.37 ± 0.046 J/K/mol
- molar heat capacity at constant pressure (6.758 K, Glass): 2.559 ± 0.068 J/K/mol
- molar heat capacity at constant pressure (6.809 K, Crystal): 1.648 ± 0.044 J/K/mol
- molar heat capacity at constant pressure (7.151 K, Glass): 2.969 ± 0.075 J/K/mol
- molar heat capacity at constant pressure (7.192 K, Crystal): 1.957 ± 0.057 J/K/mol
- molar heat capacity at constant pressure (7.546 K, Glass): 3.418 ± 0.081 J/K/mol
- molar heat capacity at constant pressure (7.578 K, Crystal): 2.288 ± 0.061 J/K/mol
- molar heat capacity at constant pressure (7.943 K, Glass): 3.889 ± 0.088 J/K/mol
- molar heat capacity at constant pressure (7.966 K, Crystal): 2.656 ± 0.068 J/K/mol
- molar heat capacity at constant pressure (8.343 K, Glass): 4.396 ± 0.096 J/K/mol
- molar heat capacity at constant pressure (8.356 K, Crystal): 3.052 ± 0.075 J/K/mol
- molar heat capacity at constant pressure (8.743 K, Glass): 4.921 ± 0.1 J/K/mol
- molar heat capacity at constant pressure (8.747 K, Crystal): 3.473 ± 0.081 J/K/mol
- molar heat capacity at constant pressure (9.141 K, Crystal): 3.927 ± 0.088 J/K/mol
- molar heat capacity at constant pressure (9.142 K, Glass): 5.507 ± 0.11 J/K/mol
- molar heat capacity at constant pressure (9.535 K, Crystal): 4.4 ± 0.094 J/K/mol
- molar heat capacity at constant pressure (9.542 K, Glass): 6.116 ± 0.12 J/K/mol
- molar heat capacity at constant pressure (9.931 K, Crystal): 4.904 ± 0.1 J/K/mol
- molar heat capacity at constant pressure (9.941 K, Glass): 6.777 ± 0.13 J/K/mol
- molar heat capacity at constant pressure (10 K, Crystal): 5 ± 0.1 J/K/mol
- molar heat capacity at constant pressure (10.43 K, Crystal): 5.581 ± 0.11 J/K/mol
- molar heat capacity at constant pressure (10.45 K, Glass): 7.669 ± 0.15 J/K/mol
- molar heat capacity at constant pressure (11.04 K, Crystal): 6.447 ± 0.12 J/K/mol
- molar heat capacity at constant pressure (11.06 K, Glass): 8.866 ± 0.16 J/K/mol
- molar heat capacity at constant pressure (11.65 K, Crystal): 7.367 ± 0.14 J/K/mol
- molar heat capacity at constant pressure (11.68 K, Glass): 9.609 ± 0.17 J/K/mol
- molar heat capacity at constant pressure (12.26 K, Crystal): 8.338 ± 0.15 J/K/mol
- molar heat capacity at constant pressure (12.33 K, Glass): 10.33 ± 0.18 J/K/mol
- molar heat capacity at constant pressure (12.88 K, Crystal): 9.361 ± 0.16 J/K/mol
- molar heat capacity at constant pressure (12.97 K, Glass): 11.38 ± 0.19 J/K/mol
- molar heat capacity at constant pressure (13.49 K, Crystal): 10.43 ± 0.18 J/K/mol
- molar heat capacity at constant pressure (13.59 K, Glass): 12.45 ± 0.2 J/K/mol
- molar heat capacity at constant pressure (14.11 K, Crystal): 11.52 ± 0.19 J/K/mol
- molar heat capacity at constant pressure (14.22 K, Glass): 13.57 ± 0.22 J/K/mol
- molar heat capacity at constant pressure (14.73 K, Crystal): 12.65 ± 0.2 J/K/mol
- molar heat capacity at constant pressure (14.85 K, Glass): 14.68 ± 0.23 J/K/mol
- molar heat capacity at constant pressure (15 K, Crystal): 13.15 ± 0.21 J/K/mol
- molar heat capacity at constant pressure (15.46 K, Crystal): 14.04 ± 0.22 J/K/mol
- molar heat capacity at constant pressure (15.59 K, Glass): 16.03 ± 0.24 J/K/mol
- molar heat capacity at constant pressure (16.3 K, Crystal): 15.65 ± 0.23 J/K/mol
- molar heat capacity at constant pressure (16.44 K, Glass): 17.61 ± 0.26 J/K/mol
- molar heat capacity at constant pressure (17.14 K, Crystal): 17.33 ± 0.25 J/K/mol
- molar heat capacity at constant pressure (17.29 K, Glass): 19.2 ± 0.27 J/K/mol
- molar heat capacity at constant pressure (17.98 K, Crystal): 19.01 ± 0.27 J/K/mol
- molar heat capacity at constant pressure (18.14 K, Glass): 20.83 ± 0.29 J/K/mol
- molar heat capacity at constant pressure (18.82 K, Crystal): 20.74 ± 0.28 J/K/mol
- molar heat capacity at constant pressure (18.99 K, Glass): 22.44 ± 0.3 J/K/mol
- molar heat capacity at constant pressure (19.66 K, Crystal): 22.48 ± 0.3 J/K/mol
- molar heat capacity at constant pressure (19.84 K, Glass): 24.05 ± 0.31 J/K/mol
- molar heat capacity at constant pressure (20 K, Crystal): 23.22 ± 0.3 J/K/mol
- molar heat capacity at constant pressure (20.8 K, Crystal): 24.92 ± 0.31 J/K/mol
- molar heat capacity at constant pressure (20.98 K, Glass): 26.32 ± 0.33 J/K/mol
- molar heat capacity at constant pressure (22.23 K, Crystal): 27.96 ± 0.33 J/K/mol
- molar heat capacity at constant pressure (22.44 K, Glass): 29.08 ± 0.34 J/K/mol
- molar heat capacity at constant pressure (23.67 K, Crystal): 30.95 ± 0.35 J/K/mol
- molar heat capacity at constant pressure (23.89 K, Glass): 31.88 ± 0.35 J/K/mol
- molar heat capacity at constant pressure (25 K, Crystal): 33.71 ± 0.36 J/K/mol
- molar heat capacity at constant pressure (25.11 K, Crystal): 33.93 ± 0.36 J/K/mol
- molar heat capacity at constant pressure (25.34 K, Glass): 34.61 ± 0.36 J/K/mol
- molar heat capacity at constant pressure (26.55 K, Crystal): 36.89 ± 0.37 J/K/mol
- molar heat capacity at constant pressure (26.79 K, Glass): 37.3 ± 0.37 J/K/mol
- molar heat capacity at constant pressure (28 K, Crystal): 39.85 ± 0.37 J/K/mol
- molar heat capacity at constant pressure (28.25 K, Glass): 39.98 ± 0.37 J/K/mol
- molar heat capacity at constant pressure (29.46 K, Crystal): 42.71 ± 0.37 J/K/mol
- molar heat capacity at constant pressure (29.71 K, Glass): 42.64 ± 0.37 J/K/mol
- molar heat capacity at constant pressure (30 K, Crystal): 43.79 ± 0.32 J/K/mol
- molar heat capacity at constant pressure (30.91 K, Crystal): 45.58 ± 0.33 J/K/mol
- molar heat capacity at constant pressure (31.17 K, Glass): 45.28 ± 0.33 J/K/mol
- molar heat capacity at constant pressure (32.37 K, Crystal): 48.31 ± 0.34 J/K/mol
- molar heat capacity at constant pressure (32.64 K, Glass): 47.85 ± 0.34 J/K/mol
- molar heat capacity at constant pressure (33.83 K, Crystal): 50.92 ± 0.36 J/K/mol
- molar heat capacity at constant pressure (34.1 K, Glass): 50.34 ± 0.35 J/K/mol
- molar heat capacity at constant pressure (35 K, Crystal): 52.97 ± 0.37 J/K/mol
- molar heat capacity at constant pressure (35.29 K, Crystal): 53.48 ± 0.37 J/K/mol
- molar heat capacity at constant pressure (35.56 K, Glass): 52.74 ± 0.37 J/K/mol
- molar heat capacity at constant pressure (36.75 K, Crystal): 55.93 ± 0.38 J/K/mol
- molar heat capacity at constant pressure (37.02 K, Glass): 55.06 ± 0.38 J/K/mol
- molar heat capacity at constant pressure (38.21 K, Crystal): 58.33 ± 0.39 J/K/mol
- molar heat capacity at constant pressure (38.48 K, Glass): 57.36 ± 0.39 J/K/mol
- molar heat capacity at constant pressure (39.67 K, Crystal): 60.64 ± 0.41 J/K/mol
- molar heat capacity at constant pressure (39.95 K, Glass): 59.57 ± 0.4 J/K/mol
- molar heat capacity at constant pressure (40 K, Crystal): 61.09 ± 0.41 J/K/mol
- molar heat capacity at constant pressure (41.38 K, Crystal): 63.18 ± 0.42 J/K/mol
